Values of other authors, collected in paper PMC8711005, “Phase 1 Dose-Escalation Study of Plasma Kallikrein Inhibitor THR-149 for the Treatment of Diabetic Macular Edema” (Translational Vision Science & Technology, 2021).

Tested on: subjects with center-involved DME
Details: single IVT injection, 14 subjects with center-involved DME, Month 3
Excerpt: A recent phase I study of another PKal inhibitor, KVD001, enrolled 14 subjects with center-involved DME who had received prior anti-VEGF treatment.[30] Baseline demographics were similar to those in the current study, with some notable differences in baseline ocular characteristics, including higher baseline BCVA and lower CST relative to those enrolled in our study. The maximum BCVA increase following a single IVT injection of KVD001 was 4.1 ETDRS letters at Month 3, with a corresponding mean reduction of 23 µm in CST. Rescue treatment was allowed; however, the frequency and imputation method ...

CCOc1ccc(C[C@@H](NC(=O)c2ccccc2)C(=O)N[C@@H](Cc2ccccc2)C(=O)NCc2ccc(CN)cc2)cc1 [KVD001]
Maximum BCVA increase: 4.1 ETDRS letters | Mean reduction in CST: 23 µm
